Results as given in ChEMBL document CHEMBL1131825, “A 2-nitroimidazole carbamate prodrug of 5-amimo-1-(chloromethyl)-3-[(5,6,7-trimethoxyindol-2-yl)carbony l]-1,2-dihydro-3H--benz[E]indole (amino-seco-CBI-TMI) for use with ADEPT and GDEPT” (Bioorg Med Chem Lett, 1999).

How the values were obtained:
SK-OV-3 [1] = assay: In vitro cytotoxicity against SKOV3 cell proliferation after 18 hr exposure in presence of 1 mM NADH; assay type: functional, cell-based; conditions: Homo sapiens, SK-OV-3, 18 h
SK-OV-3 [2] = assay: In vitro cytotoxic activity against SKOV3 cell line after 4 hours at less than 0.01 % of oxygen in gas phase; assay type: functional, Homo sapiens
SK-OV-3 [3] = assay: In vitro cytotoxic activity against SKOV3 cell line after 1 hour at 20% oxygen present in gas phase; assay type: functional, Homo sapiens
SK-OV-3 [4] = assay: In vitro cytotoxic activity against SKOV3 cell line after 4 hours at 20% oxygen present in gas phase; assay type: functional, Homo sapiens
SC-3 = assay: In vitro cytotoxicity against SC3.2 cell proliferation after 18 hr exposure; assay type: functional, cell-based, Homo sapiens; conditions: Mus musculus, SC-3, 18 h
SK-OV-3 [5] = assay: In vitro cytotoxicity against SKOV3 cell proliferation after 18 hr exposure in presence of 1 mM NADH + NTR; assay type: functional, cell-based; conditions: Homo sapiens, SK-OV-3, 18 h
SK-OV-3 [6] = assay: In vitro cytotoxicity against SKOV3 cell proliferation after 18 hr exposure in absence of reagent; assay type: functional, cell-based; conditions: Homo sapiens, SK-OV-3, 18 h
SK-OV-3 [7] = assay: In vitro cytotoxic activity against SKOV3 cell line after 1 hour at less than 0.01 % of oxygen in gas phase; assay type: functional, Homo sapiens

## COc1cc2cc(C(=O)N3CC(CCl)c4c3cc(NC(=O)OCc3cnc([N+](=O)[O-])n3C)c3ccccc43)[nH]c2c(OC)c1OC (configuration not stated)
SK-OV-3 [1]
  IC50: 57 nM
SK-OV-3 [2]
  C10: 15 nM
SK-OV-3 [3]
  C10: 2100 nM
SK-OV-3 [4]
  C10: 600 nM
SC-3
  IC50: 3.5 nM
SK-OV-3 [5]
  IC50: 8 nM
SK-OV-3 [6]
  IC50: 75 nM
SK-OV-3 [7]
  C10: 135 nM

## COc1cc2cc(C(=O)N3CC(CCl)c4c3cc(N)c3ccccc43)[nH]c2c(OC)c1OC (configuration not stated)
SK-OV-3 [1]
  IC50: 0.96 nM
SC-3
  IC50: 2.17 nM
SK-OV-3 [5]
  IC50: 1.14 nM
SK-OV-3 [6]
  IC50: 1.1 nM
